In US20030065292A1, “Ozonated medical devices and methods of using ozone to prevent complications from indwelling medical devices” (priority 2001, published 2003):

Tests used:
[1] = system: Escherichia coli strain 2131; test: Ozone killing of microorganisms in solution; assay type: cell-based; conditions: 25° C.
Protocol: A clinical isolate of Escherichia coli strain 2131 that had caused catheter-related infection was used. The organism was grown overnight in tryptic soy broth (TSB) at 37° C., then diluted to a concentration of 10^4 cfU/ml of normal saline. A 120 ml aliquot of the 10^4 cfU/ml working bacterial suspension was placed in each of two beakers at 25° C.: (1) In the experimental arm, ozone was bubbled into the bacterial suspension; (2) In the control arm, no ozone was bubbled. Four hours later, three samples of the bacterial suspension in each beaker and serial dilutions were inoculated onto blood agar plates. Colony counts were determined at 24 hours after incubation of the agar plates at 37° C. The following table summarizes the results of cultures: […]

[2] = system: Escherichia coli strain 2131; test: Ozone killing of microorganisms on catheter surfaces; assay type: cell-based
Protocol: A clinical isolate of Escherichia coli strain 2131 that had caused catheter-related infection was used. The organism was grown overnight in tryptic soy broth (TSB) at 37° C., then diluted to a concentration of 10^4 cfu/ml of TSB. The lumens of four 7-french, 20 -cm, triple-lumen polyurethane central venous catheters were filled with this working bacterial suspension and the catheters were then incubated at 25° C. for 4 hours. After draining the bacterial suspension from the lumens of catheters, the lumens were flushed with 1 ml of sterile normal saline. Using a closed dynamic flow system, the lumens of the four catheters were continually perfused for 4 hours at 25° C. with a recirculating total volume of 3 ml of sterile normal saline at a flow rate of 0.1 ml/minute. Ozone was continuously bubbled into the beaker containing the saline perfusing the lumens of two catheters (experimental arm), but no ozone was bubbled into the beaker containing the saline perfusing the lumens of the other two catheters (control arm). Four hours later, two 2 -cm segments from each of the four catheters (two in the experimental arm, and two in the control arm) were cultured onto blood agar plates using the sonication technique. Samples of the saline running through the experimental and control catheters were also inoculated onto blood agar plates. Colony counts were determined at 24 hours after incubation of the agar plates at 37° C. The following table summarizes the results of cultures of catheter segments: […]

Q: For `O=[O+][O-]` [ozone], which “Number of E. coli colony forming units per ml (cfu/ml)” value ([1]; experimental arm: ozone bubbled into 10^4 cfu/ml bacterial suspension in normal saline, sampled four hours later, colony counts at 24 hours) is on record?
A: Its value is 0 cfu/ml.

Q: And the “Ozone killing of E. coli in solution (result in words)” value ([1]; ozone bubbled into bacterial suspension, 4 hours)?
A: The value was “kills E. coli in solution”.

Q: And the “Number of E. coli colony forming units cultured from 2-cm catheter segments” value ([2]; experimental arm: catheter lumens perfused 4 hours at 25° C. with saline continuously bubbled with ozone, sonication technique)?
A: Its value is 0 colony forming units.

Q: And the “Ozone killing of E. coli adhered to catheter surface (result in words)” value ([2]; lumens perfused 4 hours with ozone-bubbled saline)?
A: The value was “kills E. coli that has adhered to the catheter surface”.

Q: And the “Concentration of E. coli in the saline solution used to perfuse the infected lumens of catheters” value ([2]; ozone-bubbled saline after 4 hours perfusion, control 42×10^2 cfu/ml)?
A: Its value is 9×10^2 cfu/ml.
